Tests used:
[1] = tested on: clinical HIV-1 isolate, JEW; test: Anti-HIV activity (p24 ELISA) in acutely infected PHA-stimulated PBMC, clinical isolate JEW; type: cell-based
From the text: The materials and experimental procedure used to obtain the results reported in Tables 1 and 2 are described below.
Virus - A clinical HIV-1 isolate, JEW, was titrated with a infectivity assay [Johnson, V. A. and R. E. Byington. 1990. Infectivity assay, p. 71-76. in A. Aldovini and B. D. Walker (ed.), Techniques in HIV Research. Stockton Press, New York], and used in our experiments.
Chemicals - d4T was supplied by Bristol-Myers Squibb Company. 5-Fluorouracil (5-FU) was purchased from Sigma.
• 1. […] 50 µl of 4 X 10^6/ml infected PBMC were added to each well in these plates to get a final 1 X 10^6 cells/ml, and incubated at 37°C. • 4. […] This was repeated with d4T using 5-FU concentrations of 0.1 µM and 0.5 µM, respectively.

PBMC = details: human

O=c1[nH]cc(F)c(=O)[nH]1 [5-FU, 5-fluorouracil]
antiviral activity ([1]; Fluorouracil alone, up to 0.5 µM, PHA-PBMC acutely infected by isolate JEW): no antiviral activity | 50% cytotoxicity concentration (PBMC): approximately 9 µM

Cc1cn([C@H]2C=C[C@@H](CO)O2)c(=O)[nH]c1=O [d4T, 2',3'-didehydro-3'-deoxythymidine]
Fold Enhancement ([1]; enhancement of d4T anti-HIV activity by 0.2 µM 5-FU, isolate JEW): 1 X

OC[C@@H]1CC[C@H](n2cnc3c(O)ncnc32)O1 [ddI, 2',3'-dideoxyinosine]
EC50 ([1]; Human immunodeficiency virus 1, PBMC, 168 h, 5-FU concentration 0.5 µM, PHA-stimulated PBMC, isolate JEW, p24 at day 7, mean of three experiments, read-out: EC50 (nM) of ddI): 138 ± 26 nM | Fold Enhancement ([1]; effect of 0.2 µM 5-FU on ddI anti-HIV activity, isolate JEW): 0.6 X | Fold Enhancement ([1]; effect of 0.5 µM 5-FU on ddI anti-HIV activity, isolate JEW): 0.7 X
